Measured values published in PubChem BioAssay (NCI).
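Method: 48-hour compound exposure of cells in 96-well plates, five concentrations, linear interpolation of endpoints. GI50 marks 50% less growth. The concentration for full growth arrest is given as TGI.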

Columns and labels:
Assay in all cases: inhibition of tumour cell growth, NCI panel, 48 h; in the data active means GI50 below about 0.43 µM; inactive means the rest
NCI-H460 lung = system: NCI-H460 lung
NCI-H23 lung = system: NCI-H23 lung
UO-31 renal = system: UO-31 renal
CAKI-1 renal = system: CAKI-1 renal
BT-549 breast = system: BT-549 breast
SF-268 CNS = system: SF-268 CNS
RPMI-8226 leukemia = system: RPMI-8226 leukemia
NCI/ADR-RES ovarian = system: NCI/ADR-RES ovarian
A549 NSCLC = system: A549 NSCLC
T-47D breast = system: T-47D breast
MCF7 breast = system: MCF7 breast
SK-MEL-2 melanoma = system: SK-MEL-2 melanoma
HCC-2998 colon = system: HCC-2998 colon
UACC-62 melanoma = system: UACC-62 melanoma
CCRF-CEM leukemia = system: CCRF-CEM leukemia
A498 renal = system: A498 renal
MOLT-4 leukemia = system: MOLT-4 leukemia
HOP-92 NSCLC = system: HOP-92 NSCLC
HT29 colon = system: HT29 colon
EKVX NSCLC = system: EKVX NSCLC
HCT-116 colon = system: HCT-116 colon
SK-MEL-28 melanoma = system: SK-MEL-28 melanoma
RXF 393 renal = system: RXF 393 renal
ACHN renal = system: ACHN renal
SNB-75 CNS = system: SNB-75 CNS
LOX IMVI melanoma = system: LOX IMVI melanoma
NCI-H226 lung = system: NCI-H226 lung
MDA-MB-231 breast = system: MDA-MB-231 breast
PC-3 prostate = system: PC-3 prostate
SK-MEL-5 melanoma = system: SK-MEL-5 melanoma
SF-295 CNS = system: SF-295 CNS
HS 578T breast = system: HS 578T breast
U251 CNS = system: U251 CNS
IGROV1 ovarian = system: IGROV1 ovarian
UACC-257 melanoma = system: UACC-257 melanoma
HCT-15 colon = system: HCT-15 colon
TK-10 renal = system: TK-10 renal
OVCAR-8 ovarian = system: OVCAR-8 ovarian
DU-145 prostate = system: DU-145 prostate
KM12 colon = system: KM12 colon
SNB-19 CNS = system: SNB-19 CNS
K-562 leukemia = system: K-562 leukemia
786-0 renal = system: 786-0 renal
NCI-H522 lung = system: NCI-H522 lung
SW-620 colon = system: SW-620 colon
SN12C renal = system: SN12C renal
MDA-MB-435 = system: MDA-MB-435
OVCAR-3 ovarian = system: OVCAR-3 ovarian
OVCAR-4 ovarian = system: OVCAR-4 ovarian
SK-OV-3 ovarian = system: SK-OV-3 ovarian
HOP-62 NSCLC = system: HOP-62 NSCLC
SF-539 CNS = system: SF-539 CNS
OVCAR-5 ovarian = system: OVCAR-5 ovarian
M14 melanoma = system: M14 melanoma
COLO 205 colon = system: COLO 205 colon
SR leukemia = system: SR leukemia
HL-60(TB) leukemia = system: HL-60(TB) leukemia
MALME-3M melanoma = system: MALME-3M melanoma

Nc1nc(-n2c(-c3ccccc3)nc3c(Br)cc(Br)cc3c2=O)nnc1-c1cccc(Cl)c1Cl
6.81 µM: TGI (MDA-MB-435)
53.6 µM: TGI (OVCAR-3 ovarian)
63.4 µM: TGI (KM12 colon)
20.8 µM: TGI (TK-10 renal)
40.2 µM: TGI (ACHN renal)
41 µM: TGI (HS 578T breast)
6.88 µM: TGI (NCI/ADR-RES ovarian)
7.06 µM: TGI (HCT-116 colon)
8.42 µM: TGI (M14 melanoma)
7.66 µM: TGI (K-562 leukemia)
34.8 µM: TGI (SF-295 CNS)
25.4 µM: TGI (UACC-62 melanoma)
15.5 µM: TGI (HCC-2998 colon)
60.7 µM: TGI (786-0 renal)
inactive: GI50 (NCI-H460 lung) 6.92 µM | GI50 (NCI-H23 lung) 15.7 µM | GI50 (UO-31 renal) 40.2 µM | GI50 (CAKI-1 renal) 17 µM | GI50 (BT-549 breast) 19.1 µM | GI50 (SF-268 CNS) 20.3 µM | GI50 (RPMI-8226 leukemia) 6.05 µM | GI50 (NCI/ADR-RES ovarian) 2.01 µM | GI50 (A549 NSCLC) 7.41 µM | GI50 (T-47D breast) > 100 µM | GI50 (MCF7 breast) 4.9 µM | GI50 (SK-MEL-2 melanoma) 83.8 µM | GI50 (HCC-2998 colon) 3.42 µM | GI50 (UACC-62 melanoma) 7.08 µM | GI50 (CCRF-CEM leukemia) 5.33 µM | GI50 (A498 renal) 15.4 µM | GI50 (MOLT-4 leukemia) 25.4 µM | GI50 (HOP-92 NSCLC) 38.5 µM | GI50 (HT29 colon) 4.82 µM | GI50 (EKVX NSCLC) 20.2 µM | GI50 (HCT-116 colon) 2.43 µM | GI50 (SK-MEL-28 melanoma) > 100 µM | GI50 (RXF 393 renal) 14.5 µM | GI50 (ACHN renal) 12.2 µM | GI50 (SNB-75 CNS) 8.65 µM | GI50 (LOX IMVI melanoma) 4.06 µM | GI50 (NCI-H226 lung) 24.1 µM | GI50 (MDA-MB-231 breast) 4.22 µM | GI50 (PC-3 prostate) 26.6 µM | GI50 (SK-MEL-5 melanoma) 4.65 µM | GI50 (SF-295 CNS) 11.2 µM | GI50 (HS 578T breast) 5.02 µM | GI50 (U251 CNS) 6.87 µM | GI50 (IGROV1 ovarian) 12.9 µM | GI50 (UACC-257 melanoma) 22.3 µM | GI50 (HCT-15 colon) 3.1 µM | GI50 (TK-10 renal) 3.96 µM | GI50 (OVCAR-8 ovarian) 17.2 µM | GI50 (DU-145 prostate) 27.3 µM | GI50 (KM12 colon) 3.29 µM | GI50 (SNB-19 CNS) 29.9 µM | GI50 (K-562 leukemia) 4.7 µM | GI50 (786-0 renal) 11.2 µM | GI50 (NCI-H522 lung) 20.8 µM | GI50 (SW-620 colon) 5.15 µM | GI50 (SN12C renal) 18.8 µM | GI50 (MDA-MB-435) 2.18 µM | GI50 (OVCAR-3 ovarian) 6.84 µM | GI50 (OVCAR-4 ovarian) 51.7 µM | GI50 (SK-OV-3 ovarian) 27.2 µM | GI50 (HOP-62 NSCLC) 2.84 µM | GI50 (SF-539 CNS) 7.8 µM | GI50 (OVCAR-5 ovarian) 6.22 µM | GI50 (M14 melanoma) 2.64 µM | GI50 (COLO 205 colon) 8.88 µM
56.5 µM: TGI (A498 renal)
50.9 µM: TGI (OVCAR-5 ovarian)
28.3 µM: TGI (SK-MEL-5 melanoma)
40.4 µM: TGI (SF-539 CNS)
46.7 µM: TGI (SNB-75 CNS)
18.3 µM: TGI (MDA-MB-231 breast)
45.9 µM: TGI (IGROV1 ovarian)
27.1 µM: TGI (U251 CNS)
58.1 µM: TGI (RXF 393 renal)
37.2 µM: TGI (LOX IMVI melanoma)
9.8 µM: TGI (HOP-62 NSCLC)
21.9 µM: TGI (HCT-15 colon)
53.1 µM: TGI (NCI-H23 lung)
> 100 µM: TGI (NCI-H460 lung) | TGI (UO-31 renal) | TGI (CAKI-1 renal) | TGI (BT-549 breast) | TGI (SF-268 CNS) | TGI (RPMI-8226 leukemia) | TGI (A549 NSCLC) | TGI (T-47D breast) | TGI (MCF7 breast) | TGI (SK-MEL-2 melanoma) | TGI (CCRF-CEM leukemia) | TGI (MOLT-4 leukemia) | TGI (HOP-92 NSCLC) | TGI (HT29 colon) | TGI (EKVX NSCLC) | TGI (SK-MEL-28 melanoma) | TGI (NCI-H226 lung) | TGI (PC-3 prostate) | TGI (UACC-257 melanoma) | TGI (OVCAR-8 ovarian) | TGI (DU-145 prostate) | TGI (SNB-19 CNS) | TGI (NCI-H522 lung) | TGI (SW-620 colon) | TGI (SN12C renal) | TGI (OVCAR-4 ovarian) | TGI (SK-OV-3 ovarian) | TGI (COLO 205 colon)

C#CCNC(CS)C(=O)O (stereo not given)
> 100 µM: TGI (NCI-H460 lung) | TGI (NCI-H23 lung) | TGI (UO-31 renal) | TGI (CAKI-1 renal) | TGI (SR leukemia) | TGI (BT-549 breast) | TGI (SF-268 CNS) | TGI (RPMI-8226 leukemia) | TGI (NCI/ADR-RES ovarian) | TGI (A549 NSCLC) | TGI (T-47D breast) | TGI (HL-60(TB) leukemia) | TGI (SK-MEL-2 melanoma) | TGI (MALME-3M melanoma) | TGI (HCC-2998 colon) | TGI (UACC-62 melanoma) | TGI (CCRF-CEM leukemia) | TGI (A498 renal) | TGI (MOLT-4 leukemia) | TGI (HOP-92 NSCLC) | TGI (HT29 colon) | TGI (EKVX NSCLC) | TGI (HCT-116 colon) | TGI (SK-MEL-28 melanoma) | TGI (RXF 393 renal) | TGI (ACHN renal) | TGI (SNB-75 CNS) | TGI (LOX IMVI melanoma) | TGI (NCI-H226 lung) | TGI (MDA-MB-231 breast) | TGI (PC-3 prostate) | TGI (SK-MEL-5 melanoma) | TGI (SF-295 CNS) | TGI (HS 578T breast) | TGI (U251 CNS) | TGI (IGROV1 ovarian) | TGI (UACC-257 melanoma) | TGI (HCT-15 colon) | TGI (TK-10 renal) | TGI (OVCAR-8 ovarian) | TGI (DU-145 prostate) | TGI (KM12 colon) | TGI (SNB-19 CNS) | TGI (K-562 leukemia) | TGI (786-0 renal) | TGI (NCI-H522 lung) | TGI (SW-620 colon) | TGI (MDA-MB-435) | TGI (OVCAR-3 ovarian) | TGI (OVCAR-4 ovarian) | TGI (SK-OV-3 ovarian) | TGI (HOP-62 NSCLC) | TGI (OVCAR-5 ovarian) | TGI (M14 melanoma) | TGI (COLO 205 colon)
